Reference: PMC2613973 (Insect biochemistry and molecular biology, 2008)

Assays:
Assay in all cases: Isothermal titration calorimetry
Format in all cases: binding
Moubatin = Moubatin (Ornithodoros moubata, UniProt Q04669)
TSGP3 = biological target: T1, TSGP3 (Ornithodoros kalahariensis, UniProt Q8I9U0)
T1 sequence (Q8I9U0 20-163): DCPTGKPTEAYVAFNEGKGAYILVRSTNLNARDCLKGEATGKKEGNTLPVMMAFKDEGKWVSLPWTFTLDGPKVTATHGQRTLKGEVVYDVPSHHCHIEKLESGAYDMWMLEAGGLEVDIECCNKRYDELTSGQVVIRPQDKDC

TSGP2 = biological target: T2, TSGP2 (Ornithodoros kalahariensis, UniProt Q8I9U1)
T2 sequence (Q8I9U1 20-163): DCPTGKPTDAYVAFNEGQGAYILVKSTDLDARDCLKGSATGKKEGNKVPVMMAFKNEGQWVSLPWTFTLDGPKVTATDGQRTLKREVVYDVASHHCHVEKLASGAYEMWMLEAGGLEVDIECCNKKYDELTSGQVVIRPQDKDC

Moubatin-like 3 = biological target: T3, Moubatin-like 3 (Ornithodoros parkeri, UniProt A6N9T1)
T3 sequence (A6N9T1 20-176): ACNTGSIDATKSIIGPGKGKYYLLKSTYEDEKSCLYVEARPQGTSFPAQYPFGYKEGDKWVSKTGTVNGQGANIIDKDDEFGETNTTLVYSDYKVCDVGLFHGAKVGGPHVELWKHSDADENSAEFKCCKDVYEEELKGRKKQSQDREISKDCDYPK

TSGP3_G85R = TSGP3_G85R (Ornithodoros kalahariensis, UniProt Q8I9U0, G104R)
T2_H95D = T2_H95D (Ornithodoros kalahariensis, UniProt Q8I9U1, H114D)
T2_M4 = T2_M4 (Ornithodoros kalahariensis, UniProt Q8I9U1, K92N/T101K/T85M/T94V)
TSGP2_R85G = TSGP2_R85G (Ornithodoros kalahariensis, UniProt Q8I9U1, R104G)
T2_ML = T2_ML (Ornithodoros kalahariensis, UniProt Q8I9U1, A132G/E131N/E136D/G133S/G134A/L130S/L135D/M127Q/M129Q/V137K)

Row | SMILES | Kd (Moubatin) | Kd (TSGP3) | Kd (TSGP2) | Kd (Moubatin-like 3) | Kd (TSGP2_R85G) | other results
1 | CCCCC/C=C\C/C=C\C/C=C\C/C=C\CCCC(=O)O [Arachidonic acid, arachidonic acid (AA)] | 34 ± 6 nM | 59 ± 24 nM | 69 ± 7 nM | – | – | –
2 | NCCc1c[nH]cn1 [Histamine, histamine] | – | – | – | 106 ± 3 nM | – | –
3 | CCCCC/C=C\C[C@@H](O)/C=C/C=C/C=C\[C@@H](O)CCCC(=O)O [LTB4, leukotriene B4] | 16 ± 3 nM | 21 ± 5 nM | 18 ± 3 nM | – | 10 ± 1.6 nM | Kd (TSGP3_G85R): 228 ± 36 nM; Kd (T2_H95D): 12 ± 2 nM; Kd (T2_M4): 6 ± 0.8 nM; Kd (T2_ML): 12 ± 2 nM
4 | NCCc1c[nH]c2ccc(O)cc12 [Serotonin, serotonin (5-hydroxytryptamine, 5-HT)] | – | – | – | 116 ± 13 nM | – | –
5 | CCCCC[C@H](O)/C=C/[C@@H]1[C@@H](C/C=C\CCCC(=O)O)[C@H]2CO[C@@H]1C2 [U46619, 9,11-dideoxy-9α,11α-methanoepoxy prostaglandin F2α (stable thromboxane A2 analog)] | 20 ± 3 nM | 9 ± 1 nM | – | – | 7 ± 1 nM | –
6 | CCCCC[C@H](O)/C=C/C1CC2CC(C2)C1C/C=C\CCCC(=O)O (stereo partly drawn) [cTXA2, carbocyclic thromboxane A2] | 24 ± 4 nM | 5 ± 0.7 nM | – | – | – | –
